From PubChem BioAssay AID2820 (Sanford-Burnham Center for Chemical Genomics, 2010)

Molecular target: G-protein coupled receptor 55 (Homo sapiens) (UniProt Q9Y2T6)
Test: GPR55 antagonist potency of analogs, SAR follow-up, imaging, U2OS, beta-arrestin-GFP, LPI agonist, set 2 (AID 2820)
Details: LPI antagonism

Sequence of G-protein coupled receptor 55 (Homo sapiens) (Q9Y2T6 whole entry, looked up): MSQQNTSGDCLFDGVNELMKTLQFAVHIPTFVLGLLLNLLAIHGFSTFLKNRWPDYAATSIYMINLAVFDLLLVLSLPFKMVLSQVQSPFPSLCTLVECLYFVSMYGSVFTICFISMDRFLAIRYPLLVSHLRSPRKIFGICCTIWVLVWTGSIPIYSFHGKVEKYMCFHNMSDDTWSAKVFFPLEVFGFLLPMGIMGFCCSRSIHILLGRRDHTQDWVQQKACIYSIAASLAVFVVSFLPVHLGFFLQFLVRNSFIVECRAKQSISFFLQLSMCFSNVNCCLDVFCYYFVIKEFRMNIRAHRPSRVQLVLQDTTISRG

| SMILES | IC50 |
| --- | --- |
| O=C(c1ccco1)N1CCN(c2nc(C3CC3)nc3sc4c(c23)CCCC4)CC1 | 865 nM |
| Cc1ccc(C2(C(=O)N3CCC(n4nc(-c5ccccc5)oc4=O)CC3)CC2)cc1 | 1080 nM |
| Cc1nc(N2CCN(C(=O)c3ccco3)CC2)c2c3c(sc2n1)CCCC3 | 702 nM |
| Cc1cc(OCC(=O)Nc2ccc(S(=O)(=O)NC3=NCCCCC3)cc2)c(C(C)C)cc1Cl | 1090 nM |
